Data on six molecules can be found in ChEMBL document CHEMBL6153154, “Novel Carbocyclic Phenylpyrrolidinone Urea Compounds as FPR2 Agonists for Treating Atherosclerosis and Heart Failure” (ACS Med Chem Lett, 2025).

Structures are written as SMILES.

This assay concerns the target T1, N-formyl peptide receptor 2 (Homo sapiens, UniProt P25090).
T1 sequence (P25090 whole entry): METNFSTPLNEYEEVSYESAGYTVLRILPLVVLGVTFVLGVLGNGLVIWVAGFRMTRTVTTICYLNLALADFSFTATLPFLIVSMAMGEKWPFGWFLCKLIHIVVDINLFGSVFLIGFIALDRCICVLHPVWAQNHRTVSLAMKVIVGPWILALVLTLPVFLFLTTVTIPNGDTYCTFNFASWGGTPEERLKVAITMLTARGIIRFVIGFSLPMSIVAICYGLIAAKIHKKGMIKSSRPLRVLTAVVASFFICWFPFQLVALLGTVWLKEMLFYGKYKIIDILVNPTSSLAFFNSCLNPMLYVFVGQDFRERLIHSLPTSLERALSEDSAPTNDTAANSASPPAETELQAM
The assay is described as follows: Agonist activity at human FPR2 expressed in CHO cells assessed as forskolin-induced cAMP level incubated for 30 mins in presence of IBMX by HTRF HiRange cAMP assay. The assay is classed as functional, cell-based. Background: cAMP levels reflect the balance of adenylyl cyclase and phosphodiesterase activity.
The term EC50 denotes the concentration needed to bring the measured effect to its halfway point. Regarding `CC(=O)NCC1(c2ccc(N3CC[C@@H](NC(=O)Nc4ccc(Cl)cc4F)C3=O)c(F)c2F)CC1`, the EC50 turned out to be 0.41 nM.
As for `CC(=O)N(C)CC1(c2ccc(N3CC[C@@H](NC(=O)Nc4ccc(C(F)(F)F)cc4F)C3=O)c(F)c2F)CC1`, the figure is 0.1 nM; as for `O=C(Nc1ccc(C(F)(F)F)cc1F)N[C@@H]1CCN(c2ccc(C3(CN4CCCC4=O)CC3)c(F)c2F)C1=O`, 0.23 nM.
With `CC(C)S(=O)(=O)CC1(c2ccc(N3CC[C@@H](NC(=O)Nc4ccc(Cl)cc4F)C3=O)c(F)c2F)CC1` the figure was 0.49 nM; with `CP(C)(=O)CC1(c2ccc(N3CC[C@@H](NC(=O)Nc4ccc(C(F)(F)F)cc4F)C3=O)c(F)c2F)CCCC1`, 0.48 nM; with `O=C(Nc1ccc(Cl)cc1F)N[C@@H]1CCN(c2ccc(C3(CN4CCCC4=O)CC3)c(F)c2F)C1=O`, 0.32 nM.
